Entries after “also recorded” stand apart in the source; their conditions may differ.
Tests used:
[1] = molecular target: T1, human KIF18A (residues 1-467) (Homo sapiens, UniProt Q8NI77); experiment: KIF18A MT-ATPase motor activity, ADP-Glo luminescence assay (Example 19); assay type: biochemical; details: human KIF18A 4 nM, 30 μM ATP; three independent experiments; read-out: IC50, KIF18A motor activity (MT-ATPase)
T1 construct: human KIF18A (residues 1-467, 4 nM); made in house
Protocol: A trio of KIF18A inhibitors (Compound C9, Compound C11, and Compound C12) were synthesized and tested in vitro for KIF18A inhibitory activity. […] The values represent mean t SEM from three independent experiments. […] As in vivo studies in mice were planned, the mouse KIF18A inhibitory effects of Compound C9 and C12 were assayed.
KIF18A compounds C9, C11, C12 were 2-fold serially diluted over a 22-point concentration range in DMSO using 384-well plate (Corning). Recombinant truncated kinesin motor proteins (human KIF18A (residues 1-467, 4 nM), mouse KIF18A (residues 1-467, 4 nM)) were expressed and purified. ADP-Glo luminescence assay (Promega) was used to measure the MT-ATPase motor activity. Porcine brain MTs were procured from Cytoskeleton Inc. Compounds were pre-incubated for <30 min in reaction buffer (15 mM Tris, pH 7.5, 10 mM MgCl2, 0.01% Pluronic F-68, 2% DMSO, 1 μM paclitaxel, 30 μg/mL MTs) with motor proteins at concentrations indicated above, 30 μM ATP was added to initiate the enzymatic reaction for 15 min at room temperature (RT). ADP-Glo reagents were added according to manufactures protocol, the luminescence intensity proportional to ADP present was measured using an EnVision plate reader (Perkin Elmer). Raw luminescence signal data was normalized to POC (percentage of positive control) and then Activity (%) was computed [POC=100×(sample signal−negative control signal)+(positive control signal−negative control signal). Activity (%)=POC−100]. The positive control (enzyme+substrate) and negative control (substrate alone) had equivalent concentrations of DMSO. Curve-fitting and IC50 values were determined by 4-parameter non-linear regression equation (variable slope) using GraphPad Prism 7.05 (GraphPad Software).

MDA-MB-157 cells = experiment: pH3 and PCM spot EC50 determination; details: pH3 and PCM spot EC50 values
[2] = tested on: human bone marrow mononuclear cells (HBMNC); experiment: BrdU cell cycle analysis and live cell count in normal cells; assay type: cell-based; details: two normal donors; for BrdU incorporation (cell cycle analysis) relative to DMSO/vehicle control: 48 h, C9, C11, palbociclib 1 μM, ispinesib 0.05 μM, paclitaxel; for live cell count relative to vehicle control: 96 hours
Protocol: The effect KIF18A inhibitor treatment has on proliferation of normal somatic cells (e.g., not neoplastic cells) was tested by assaying proliferation of human bone marrow mononuclear cells (HBMNCs), primary human foreskin fibroblast cells (hFSF) and human mammary epithelial cells via a 5-bromo-2′-deoxyuridine (BrdU) incorporation assay in which BrdU, an analog of the nucleoside thymidine, is used to identify proliferating cells (Payton et. al., Molecular Cancer Therapeutics, 17(12):2575-85 (2018)). Cells were analyzed on BD LSRFortessa flow cytometer using BD FACSDiva software (BD Biosciences), and post-acquisition data analysis was performed using FSC-Express software (De Novo). The percentage of BrdU positive gated events on the stacked DNA content histograms were reported.
To further examine the effects of KIF18A inhibitor treatment on HBMNC, two normal donors were assessed using the BrdU coupled cell cycle assay and cell count assay (96 hours) was. […] In particular, the amount of BrdU-stained proliferating cells treated with Ispinesib, paclitaxel, or a CDK 4/6 inhibitor (palbociclib) was far less than the amount of vehicle control-treated BrdU-stained cells. […] KIF18A inhibitor treatment was also analyzed for impact on live cell count. After 96 hours, live cells were counted by Vi-CELL XR Cell Viability Analyzer (Beckman Coulter).
To investigate whether KIF18A inhibitors could circumvent this normal cell toxicity barrier, we examined the effects of Compounds C9 and C11 on a panel of cycling normal somatic cell types. First, we treated human bone marrow mononuclear cells (HBMNC) from two normal donors with DMSO, Compound C9 and C11 at 1 μM, ispinesib at 0.05 μM, paclitaxel at 0.05 μM, or palbociclib at 1 μM for 48 h (cell cycle) or 96 h (cell growth).
BrdU and cell cycle analysis. Human bone marrow mononuclear cells (HBMNCs) from two normal donors (#37612, #37534) were cultured for 8 days in defined media as previously described (Payton et al 2018). HBMNCs were seeded in 24-well plate at 1.2×10^6 cells per well in duplicate plates. Cells were treated with DMSO, Compound C9 (1 μM), Compound C11 (1 μM), ispinesib (0.05 μM), paclitaxel ([…]), or palbociclib (1 μM). Cells were collected at 48 h (cell cycle) and 96 h (cell growth). The first set of plates were pulsed with BrdU for 2 h and processing for BrdU cell cycle analysis as previously described (Payton et al 2018). Cells were analyzed on BD LSRFortessa flow cytometer running BD FACSDiva software and post-acquisition data analysis was performed using FSC-Express software. Data was reported for the percentage of BrdU and subG1 gated populations. The second set of plates were collected, and cells counted using Vi-CELL XR Cell Viability Analyzer (Beckman Coulter).

T1 sequence (Q8NI77 1-467): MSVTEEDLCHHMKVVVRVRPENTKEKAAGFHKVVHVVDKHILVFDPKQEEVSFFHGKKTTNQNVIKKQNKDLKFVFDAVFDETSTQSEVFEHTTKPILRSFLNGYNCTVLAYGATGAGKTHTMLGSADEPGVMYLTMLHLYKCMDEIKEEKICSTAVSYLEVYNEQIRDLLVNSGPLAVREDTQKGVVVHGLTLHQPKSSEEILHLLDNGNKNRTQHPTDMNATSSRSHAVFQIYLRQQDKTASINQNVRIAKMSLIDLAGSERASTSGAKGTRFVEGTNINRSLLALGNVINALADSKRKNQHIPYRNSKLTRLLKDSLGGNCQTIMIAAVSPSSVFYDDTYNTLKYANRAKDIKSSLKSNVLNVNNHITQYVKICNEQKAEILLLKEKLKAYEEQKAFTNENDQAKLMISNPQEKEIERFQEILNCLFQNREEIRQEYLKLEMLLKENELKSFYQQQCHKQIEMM
T1 sequence (P02550 whole entry partner, the tested form may be a part): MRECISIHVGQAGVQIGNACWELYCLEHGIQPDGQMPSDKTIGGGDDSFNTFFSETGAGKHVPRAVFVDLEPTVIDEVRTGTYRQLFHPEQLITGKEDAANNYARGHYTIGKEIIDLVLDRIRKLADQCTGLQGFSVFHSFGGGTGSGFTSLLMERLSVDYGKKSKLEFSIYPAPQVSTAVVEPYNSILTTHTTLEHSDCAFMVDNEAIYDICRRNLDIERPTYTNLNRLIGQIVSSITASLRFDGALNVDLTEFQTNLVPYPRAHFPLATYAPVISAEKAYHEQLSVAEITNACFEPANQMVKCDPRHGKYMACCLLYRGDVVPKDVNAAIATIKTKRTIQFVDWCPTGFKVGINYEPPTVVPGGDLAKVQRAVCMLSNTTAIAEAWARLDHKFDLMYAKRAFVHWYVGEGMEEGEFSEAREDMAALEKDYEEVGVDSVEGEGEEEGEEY
T1 sequence (P02554 whole entry partner, the tested form may be a part): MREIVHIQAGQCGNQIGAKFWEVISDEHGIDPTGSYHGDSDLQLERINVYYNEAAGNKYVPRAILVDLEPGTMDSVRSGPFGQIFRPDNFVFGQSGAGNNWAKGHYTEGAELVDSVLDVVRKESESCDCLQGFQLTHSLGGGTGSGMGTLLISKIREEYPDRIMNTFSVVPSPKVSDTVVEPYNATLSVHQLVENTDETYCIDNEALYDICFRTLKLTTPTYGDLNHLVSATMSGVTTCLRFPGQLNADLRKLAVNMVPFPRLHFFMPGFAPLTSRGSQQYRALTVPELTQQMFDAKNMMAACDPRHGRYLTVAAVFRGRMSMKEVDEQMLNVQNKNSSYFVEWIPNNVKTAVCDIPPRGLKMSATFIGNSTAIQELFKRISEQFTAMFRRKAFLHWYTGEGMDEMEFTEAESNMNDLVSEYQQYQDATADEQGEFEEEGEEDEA

Q: Which results are given for CC(C)(CO)Nc1ccc(C(=O)Nc2cccc(S(=O)(=O)C3CCCC3)c2)c(N2CCC3(CC2)CC3)n1 [Compound C11, N-(3-(cyclopentylsulfonyl)phenyl)-6-((1-hydroxy-2-methylpropan-2-yl)amino)-2-(6-azaspiro[2.5]octan-6-yl)nicotinamide]?
A: IC50 [1]: 70 nM; improvement of cell potency relative to a control compound (MDA-MB-157 cells): > 70 fold; BrdU incorporation (cell cycle analysis) relative to DMSO/vehicle control [2]: about the same; also recorded: minimal diminution in BrdU incorporation; live cell count relative to vehicle control [2]: little to no effect; also recorded: comparable cell counts

Q: Which results are given for CC(C)(C)NS(=O)(=O)c1cccc(NC(=O)c2ccc(S(=O)(=O)NC(C)(C)C)cc2N2CCC3(CC2)CC3)c1 [Compound C9, 4-(N-(tert-butyl)sulfamoyl)-N-(3-(N-(tert-butyl)sulfamoyl)phenyl)-2-(6-azaspiro[2.5]octan-6-yl)benzamide]?
A: IC50 [1]: 180 nM; improvement of cell potency relative to a control compound (MDA-MB-157 cells): > 450 fold; BrdU incorporation (cell cycle analysis) relative to DMSO/vehicle control [2]: about the same; also recorded: minimal diminution in BrdU incorporation; live cell count relative to vehicle control [2]: little to no effect; also recorded: comparable cell counts

— patent US20230151432A1, “KIF18A INHIBITORS FOR TREATMENT OF NEOPLASTIC DISEASES” (AMGEN INC., priority 2020, published 2023)
